Source: patent US11400062B2, “Compositions comprising enzyme-cleavable amphetamine prodrugs and inhibitors thereof” (Signature Therapeutics, Inc., priority 2010, dated 2022)

How the values were obtained:
[1] = Pharmacokinetics of prodrug following IV administration to rats; conditions: for Cmax: male, Sprague Dawley, rat, plasma, iv
[2] = Pharmacokinetics of prodrug following PO administration to rats; conditions: for Cmax / Tmax: male, Sprague Dawley, rat, plasma, po
[3] = target: T1, trypsin from bovine pancreas (Bos taurus, UniProt P00760); experiment: In vitro trypsin conversion of prodrugs to amphetamine and inhibition by trypsin inhibitor; conditions: no trypsin inhibitor; 0.761 mM prodrug HCl, 0.0228 mg/ml trypsin, pH 8, 37° C.
T1 sequence (P00760 24-246): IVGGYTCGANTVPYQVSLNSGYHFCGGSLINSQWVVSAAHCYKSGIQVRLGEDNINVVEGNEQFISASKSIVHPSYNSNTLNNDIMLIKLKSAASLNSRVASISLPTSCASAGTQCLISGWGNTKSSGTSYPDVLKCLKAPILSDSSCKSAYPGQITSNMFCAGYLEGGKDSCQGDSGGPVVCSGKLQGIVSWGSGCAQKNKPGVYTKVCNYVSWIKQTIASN

trypsin = target: T2, trypsin (Bos taurus, UniProt P00760); experiment: as above; conditions: bovine, trypsin from bovine pancreas; for half-life at 0.761 mM: pH 8; for half-life: pH 8, with Compound 109 (trypsin inhibitor), 2 uM
T2 sequence (P00760 24-246): T1 sequence (P00760 24-246)

[4] = In vivo tolerability in rats (intravenous); set-up: species or system rat; conditions: for dose tolerated by rats: IV
Procedure: (§1) Male naïve Sprague-Dawley rats, 4 per dose, were used in the study. Rats were weighed, and then placed under a heat lamp for 15-20 minutes to dilate the lateral tail veins. […] Before dosing, rats were placed in Broome restrainers and the drug was introduced into one of the tail veins using a syringe and needle. […] Blood samples were collected 5 minutes post-dose via the saphenous vein. The rats were observed up to 24 hours.
as §1
The protocol to assess the IV tolerability of Compound AM-3 (lisdexamphetamine) was as described in Examples 9 and 13 above.

[5] = rat plasma, AM-4 PO 24 mg/kg (63 μmol/kg)

Which Cmax ([1]; 4.5 mg/kg) does the source give for `CC(=O)N[C@@H](CCCCN)C(=O)N[C@@H](C)Cc1ccccc1` [Compound AM-5, Amphetamine-lysine-acetate] here?
Its Cmax is 2150 ± 1700 ng/mL.

For “Amphetamine-arginine-N-methyl [Compound AM-4]”, which “AMP Cmax ± sd” value ([1]; rat plasma, AM-4 IV 4.5 mg/kg (12 μmol/kg)) is on record?
The value was 17.9 ± 3.5 ng/mL.

What about the “AMP Cmax ± sd” value [2, 5] of the same compound?
The value was 1.92 ± 0.20 ng/mL.

What about the “AMP Tmax ± sd” value [2, 5] of the same compound?
The value was 1.00 ± 0.0 h.

With `CC(=O)N[C@@H](CCCNC(=N)N)C(=O)N[C@@H](C)Cc1ccccc1` (stereo in doubt) [Compound AM-1, 2-acetylamino-5-guanidino-pentanoic acid ((R)-1-methyl-2-phenyl-ethyl)-amide] as the compound, how does the “Rate of AMP formation, Ave ± sd” value [3] read?
The value was 0.0455 ± 0.0102 umols/h/UBAEE.

And the half-life at 0.761 mM (trypsin)?
Its half-life at 0.761 mM is 39.9 ± 0.5 h.

What about the half-life (trypsin) of the same compound?
Its half-life is 54 ± 4.6 h.

And the “time to recover to normal activity” value ([4]; AM-1 IV 87 μmol/kg)?
The value was no more than 2 min.

And the “dose tolerated by rats” value [4]?
The value was 87 µmol/kg.

And the Cmax ([1]; 5 mg/kg)?
The Cmax was 3250 ± 310 ng/mL.

What about the Cmax ([2]; 24 mg/kg) of the same compound?
The Cmax was 1.28 ± 0.81 ng/mL.

What about the Tmax ([2]; 24 mg/kg) of the same compound?
The Tmax was 0.625 ± 0.43 h.

For `C[C@@H](Cc1ccccc1)NC(=O)[C@@H](N)CCCCN` [Compound AM-3, lisdexamphetamine, reference compound], which “Rate of AMP formation, Ave ± sd” value [3] is on record?
The value was “not detectable”.

What about the half-life at 0.761 mM (trypsin) of the same compound?
Its half-life at 0.761 mM is 112 ± 14 h.

What about the half-life (trypsin) of the same compound?
The half-life was 393 ± 431 h.

And the “time to recover to normal activity” value ([4]; AM-3 IV 48 μmol/kg)?
The value was no more than 120 min.

What about the “death of the rats” value ([4]; AM-3 IV 95 μmol/kg) of the same compound?
The value was 50%.

And the time to death ([4]; AM-3 IV 95 μmol/kg and 190 μmol/kg)?
Its time to death is “less than 1 min”.

And the “death of the rats” value ([4]; AM-3 IV 190 μmol/kg)?
Its value is 100%.

What about the Clinical observations ([4]; AM-3 IV 64 mg/kg (190 μmol/kg), 1 rat) of the same compound?
Its Clinical observations is “Died 10 sec post dose”.

What about the “dose tolerated by rats” value [4] of the same compound?
Its value is 48 µmol/kg.

What about the Cmax ([1]; 4.5 mg/kg) of the same compound?
Its Cmax is 1670 ± 580 ng/mL.

And the Cmax ([2]; 22 mg/kg)?
Its Cmax is 357 ng/mL.

And the Tmax ([2]; 22 mg/kg)?
Its Tmax is 0.625 ± 0.25 h.

With `C[C@@H](Cc1ccccc1)NC(=O)[C@H](CCCNC(=N)N)NC(=O)CC(=O)O` [Compound AM-2, N-[4-guanidino-1-((R)-1-methyl-2-phenyl-ethylcarbamoyl)-butyl]-malonic acid] as the compound, how does the “Rate of AMP formation, Ave ± sd” value [3] read?
The value was 0.0310 ± 0.0004 umols/h/UBAEE.

And the half-life at 0.761 mM (trypsin)?
The half-life at 0.761 mM was 59.9 ± 17.1 h.

And the half-life (trypsin)?
Its half-life is 68.5 ± 16.4 h.

And the “time to recover to normal activity” value ([4]; AM-2 IV 155 μmol/kg)?
Its value is no more than 30 min.

What about the “dose tolerated by rats” value [4] of the same compound?
The value was 155 µmol/kg.

And the Cmax ([1]; 6 mg/kg)?
The Cmax was 2600 ± 260 ng/mL.

And the Cmax ([2]; 27 mg/kg)?
The Cmax was 811 ± 850 ng/mL.

And the Tmax ([2]; 27 mg/kg)?
The Tmax was 0.625 ± 0.25 h.
